Patent US11730720B2, “ALK5 inhibitors” (THERAVANCE BIOPHARMA R&D IP, LLC, priority 2018, dated 2023)

Assays:
[1] = target: T1, recombinant human ALK5 (TGF-βR1) protein (Homo sapiens, UniProt P36897); assay: Biochemical ALK5 (TGF-βR1) assay to measure pKi (LANCE Ultra ULight kinase assay); conditions: apparent pKi, converted from pIC50 using the Cheng-Prusoff equation
T1 construct: purchased Life Technologies PR9075A
T1 sequence (P36897 34-503): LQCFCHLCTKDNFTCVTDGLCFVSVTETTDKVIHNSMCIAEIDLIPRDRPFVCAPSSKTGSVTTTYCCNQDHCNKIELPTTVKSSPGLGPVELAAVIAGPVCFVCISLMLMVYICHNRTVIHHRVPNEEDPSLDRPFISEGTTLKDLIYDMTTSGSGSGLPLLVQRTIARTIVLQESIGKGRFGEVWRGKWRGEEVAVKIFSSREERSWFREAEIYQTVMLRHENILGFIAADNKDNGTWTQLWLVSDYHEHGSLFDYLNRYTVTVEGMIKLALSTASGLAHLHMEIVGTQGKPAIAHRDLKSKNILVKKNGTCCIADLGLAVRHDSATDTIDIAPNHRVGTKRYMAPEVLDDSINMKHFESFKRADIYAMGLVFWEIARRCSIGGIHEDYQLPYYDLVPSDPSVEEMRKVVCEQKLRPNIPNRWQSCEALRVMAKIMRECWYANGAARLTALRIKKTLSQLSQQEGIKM
Procedure, shortened: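 TR-FRET kinase format: compound dose range 10 μM–25 pM equilibrated 60 min with human ALK5 and ULight-labelled topoisomerase 2α peptide in HEPES/MgCl2 buffer pH 7.5 with DTT. Reaction started with ATP (125 μM stock, 5× final), 60 min at 37° C, stopped with EDTA/Eu-anti-phospho antibody; pKi derived from pIC50 via Cheng-Prusoff.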

[2] = tested on: TGF-β-stimulated SMAD3 phosphorylation in BEAS-2B cells; assay: Cellular ALK5 potency assay, inhibition of TGF-β stimulated pSMAD3 formation in BEAS-2B cells; type: cell-based; conditions: Homo sapiens, inhibition of TGF-β (10 ng/mL) stimulated pSMAD3 formation, 1 hour compound incubation, read-out: BEAS2B pIC50 (converted)
Procedure, shortened: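 Phospho-SMAD3 was quantified by AlphaLISA in lysates of human lung epithelial BEAS-2B cells. Compound was added 1 h (37 °C, HEPES/BSA-supplemented HBSS) before a 30 min challenge with 10 ng/mL TGF-β. Values are pIC50 relative to stimulated cells without compound.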

Work on C[C@@H]1CN(CCNc2cnc3ccc(-c4nc[nH]c4-c4cccc(Cl)c4)cc3c2)C[C@H](C)N1 [Compound 24-3, 6-[5-(3-chlorophenyl)-1H-imidazol-4-yl]-N-[2-[(3R,5S)-3,5-dimethylpiperazin-1-yl]ethyl]quinolin-3-amine] yielded a Ki [1] of 0.398 to 3.16 nM and an IC50 [2] of 25.1 to 158 nM.

Fc1ccc(Cl)cc1-c1n[nH]cc1-c1ccc2ncc(NCC3CNCCN3)cc2n1 (stereo not drawn) [Compound 1-26, 6-[3-(5-chloro-2-fluoro-phenyl)-1H-pyrazol-4-yl]-N-(piperazin-2-ylmethyl)-1,5-naphthyridin-3-amine] gave a Ki [1] of 0.0398 to 0.316 nM and an IC50 [2] of 25.1 to 158 nM.

Fc1ccc(Cl)cc1-c1n[nH]cc1-c1ccc2ncc(N3CC(N4CCCCC4)C3)cc2n1 [Compound 1-40, 2-[3-(5-chloro-2-fluoro-phenyl)-1H-pyrazol-4-yl]-7-[3-(1-piperidyl)azetidin-1-yl]-1,5-naphthyridine] was tested, and the Ki [1] was 0.0398 to 0.316 nM and the IC50 [2] was 25.1 to 158 nM.

O=C(O)[C@H]1CN(c2cnc3ccc(-c4c[nH]nc4-c4cc(Cl)ccc4F)nc3c2)CCN1 [Compound 1-130, (2R)-4-[6-[3-(5-chloro-2-fluoro-phenyl)-1H-pyrazol-4-yl]-1,5-naphthyridin-3-yl]piperazine-2-carboxylic acid] showed a Ki [1] of 0.398 to 3.16 nM and an IC50 [2] of 200 to 1260 nM.

CN1CCC(N(C)c2cnc3ccc(-c4c[nH]nc4-c4cc(Cl)c(F)cc4F)nc3c2)CC1 [Compound 6-16, 6-[3-(5-chloro-2,4-difluoro-phenyl)-1H-pyrazol-4-yl]-N-methyl-N-(1-methyl-4-piperidyl)-1,5-naphthyridin-3-amine] gave a Ki [1] of 0.398 to 3.16 nM and an IC50 [2] of 25.1 to 158 nM.

In the case of Fc1ccc(Cl)cc1-c1[nH]cnc1-c1ccc2ncc(-c3nnn4c3CNCC4)cc2c1 [Compound 17-12, 6-[5-(5-chloro-2-fluoro-phenyl)-1H-imidazol-4-yl]-3-(4,5,6,7-tetrahydrotriazolo[1,5-a]pyrazin-3-yl)quinoline], the Ki [1] is reported as 0.398 to 3.16 nM and the IC50 [2] is reported as 25.1 to 158 nM.

With Fc1ccc(Cl)cc1-c1[nH]cnc1-c1ccc2ncc(-c3nc4n(n3)CCNC4)cc2n1 [Compound 2-25, 2-[5-(5-chloro-2-fluoro-phenyl)-1H-imidazol-4-yl]-7-(5,6,7,8-tetrahydro-[1,2,4]triazolo[1,5-a]pyrazin-2-yl)-1,5-naphthyridine] the Ki [1] was 0.0398 to 0.316 nM and the IC50 [2] was 25.1 to 158 nM.

COCc1cccc(-c2n[nH]cc2-c2ccc3ncc(-c4cnn(CCN)c4)cc3n2)c1 [Compound 14-13, 2-[4-[6-[3-[3-(methoxymethyl)phenyl]-1H-pyrazol-4-yl]-1,5-naphthyridin-3-yl]pyrazol-1-yl]ethanamine] was tested, and the Ki [1] was 0.0398 to 0.316 nM and the IC50 [2] was 25.1 to 158 nM.

Fc1ccc(Cl)cc1-c1n[nH]cc1-c1ccc2ncc(N3CCn4nc(N5CCN(Cc6ccccc6)CC5)nc4C3)cc2n1 [Compound 1-46, 7-[2-(4-benzylpiperazin-1-yl)-6,8-dihydro-5H-[1,2,4]triazolo[1,5-a]pyrazin-7-yl]-2-[3-(5-chloro-2-fluoro-phenyl)-1H-pyrazol-4-yl]-1,5-naphthyridine] was tested, and the Ki [1] was 0.0398 to 0.316 nM and the IC50 [2] was 25.1 to 158 nM.

Molecule Fc1ccc(Cl)cc1-c1n[nH]cc1-c1ccc2ncc(N3CCC(N4CCCC4)CC3)cc2n1 [Compound 1-44, 2-[3-(5-chloro-2-fluoro-phenyl)-1H-pyrazol-4-yl]-7-(4-pyrrolidin-1-yl-1-piperidyl)-1,5-naphthyridine] has a Ki [1] of 0.0398 to 0.316 nM and an IC50 [2] of 25.1 to 158 nM.

NCCn1cc(-c2cnc3ccc(-c4nc[nH]c4-c4cc(Cl)c(F)cc4F)nc3c2)cn1 [Compound 7-5, 2-[4-[6-[5-(5-chloro-2,4-difluoro-phenyl)-1H-imidazol-4-yl]-1,5-naphthyridin-3-yl]pyrazol-1-yl]ethanamine] gave a Ki [1] of 0.0398 to 0.316 nM and an IC50 [2] of 25.1 to 158 nM.

CN(C)C1CCN(c2cnc3ccc(-c4c[nH]nc4-c4cc(Cl)c(F)cc4F)nc3c2)C1 (racemic) [Compound 6-22, rac-(3S)-1-[6-[3-(5-chloro-2,4-difluoro-phenyl)-1H-pyrazol-4-yl]-1,5-naphthyridin-3-yl]-N,N-dimethyl-pyrrolidin-3-amine] gave a Ki [1] of 0.0398 to 0.316 nM and an IC50 [2] of 25.1 to 158 nM.

CNC1CCN(c2cnc3ccc(-c4c[nH]nc4-c4cc(Cl)ccc4F)nc3c2)CC1 [Compound 1-60, 1-[6-[3-(5-chloro-2-fluoro-phenyl)-1H-pyrazol-4-yl]-1,5-naphthyridin-3-yl]-N-methyl-piperidin-4-amine] was tested, and the Ki [1] was 0.0398 to 0.316 nM and the IC50 [2] was 25.1 to 158 nM.

With Fc1ccc(Cl)cc1-c1[nH]cnc1-c1ccc2ncc(N3CCCNCC3)cc2n1 [Compound 2-7, 2-[5-(5-chloro-2-fluoro-phenyl)-1H-imidazol-4-yl]-7-(1,4-diazepan-1-yl)-1,5-naphthyridine] the Ki [1] was 0.398 to 3.16 nM and the IC50 [2] was 25.1 to 158 nM.

COC(=O)[C@H]1CN(c2cnc3ccc(-c4c[nH]nc4-c4cc(Cl)c(F)cc4F)nc3c2)CCN1 [Compound 6-27, methyl (2R)-4-[6-[3-(5-chloro-2,4-difluoro-phenyl)-1H-pyrazol-4-yl]-1,5-naphthyridin-3-yl]piperazine-2-carboxylate] was tested, and the Ki [1] was 0.398 to 3.16 nM and the IC50 [2] was 25.1 to 158 nM.
